The values below come from patent US7265103B2, “Substituted amino isoxazoline derivatives and their use as anti-depressants” (Janssen Pharmaceutica NV., priority 2002, dated 2007).

The target of one assay is T1, hα2A receptor (Homo sapiens, UniProt P08913).
T1 construct: expressed in transfected cells; host or cells: CHO cells
T1 sequence (P08913 1-465): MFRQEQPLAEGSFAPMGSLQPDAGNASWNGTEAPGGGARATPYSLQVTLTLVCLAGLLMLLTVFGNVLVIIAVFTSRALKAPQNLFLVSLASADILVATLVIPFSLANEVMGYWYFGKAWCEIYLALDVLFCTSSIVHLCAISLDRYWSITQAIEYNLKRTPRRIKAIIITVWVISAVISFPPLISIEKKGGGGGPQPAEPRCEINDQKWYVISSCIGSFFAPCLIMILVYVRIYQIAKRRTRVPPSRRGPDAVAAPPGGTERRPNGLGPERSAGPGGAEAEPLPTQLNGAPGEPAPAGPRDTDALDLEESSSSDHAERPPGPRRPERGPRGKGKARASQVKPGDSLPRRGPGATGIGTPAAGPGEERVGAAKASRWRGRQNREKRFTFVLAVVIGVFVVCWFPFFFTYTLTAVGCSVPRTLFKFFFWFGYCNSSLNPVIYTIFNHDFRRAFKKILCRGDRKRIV
Nature of the assay: Radioligand binding experiment for α2A-adrenergic receptor ([3H]-raulwolscine). Particulars: CHO cell membranes with human α2A receptor, [3H]raulwolscine 1 nM; read-out: pIC50 α2A (converted). On the procedure: (§1) The interaction of the compounds of Formula (I) with hα2-receptors and h5-HT-transporters was assessed in in vitro radioligand binding experiments. In general, a low concentration of a radioligand with a high binding affinity for a particular receptor or transporter is incubated with a sample of a tissue preparation enriched in a particular receptor or transporter or with a preparation of cells expressing cloned human receptors in a buffered medium. During the incubation, the radioligand binds to the receptor or transporter. When equilibrium of binding is reached, the receptor bound radioactivity is separated from the non-bound radioactivity, and the receptor- or transporter-bound activity is counted. The interaction of the test compounds with the receptor is assessed in competition binding experiments. Various concentrations of the test compound are added to the incubation mixture containing the receptor- or transporter preparation and the radioligand. The test compound in proportion to its binding affinity and its concentration inhibits binding of the radioligand. The radioligand used for hα2A, hα2B and hα2C receptor binding was [^3H]-raulwolscine and for the h5-HT transporter was [^3H]paroxetine.
(§2) CHO cells, stabile transfected with human adrenergic-α2A-, -α2B or α2C receptor cDNA, were cultured in Dulbecco's Modified Eagle's Medium (DMEM)/Nutrient mixture Ham's F12 (ratio 1:1)(Gibco, Gent-Belgium) supplemented with 10% heat inactivated fetal calf serum (Life Technologies, Merelbeke-Belgium) and antibiotics (100 IU/ml penicillin G, 100 μg/ml streptomycin sulphate, 110 μg/ml pyruvic acid and 100 μg/ml L-glutamine). One day before collection, cells were induced with 5 mM sodiumbutyrate. Upon 80-90% of confluence, cells were scraped in phosphate buffered saline without Ca^2+ and Mg^2+ and collected by centrifugation at 1500×g for 10 min. The cells were homogenised in Tris-HCl 50 mM using an Ultraturrax homogenizer and centrifuged for 10 min at 23,500×g. The pellet was washed once by resuspension and rehomogenization and the final pellet was resuspended in Tris-HCl, divided in 1 ml aliquots and stored at −70° C.
(§3) Membranes were thawed and re-homogenized in incubation buffer (glycylglycine 25 mM, pH 8.0). In a total volume of 500 μl, 2-10 μg protein was incubated with [^3H]raulwolscine (NET-722) (New England Nuclear, USA) (1 nM final concentration) with or without competitor for 60 min at 25° C. followed by rapid filtration over GF/B filter using a Filtermatel 96 harvester (Packard, Meriden, Conn.). Filters were rinsed extensively with ice-cold rinsing buffer (Tris-HCl 50 mM pH 7.4). Filter-bound radioactivity was determined by scintillation counting in a Topcount (Packard, Meriden, Conn.) and results were expressed as counts per minute (cpm). Non-specific binding was determined in the presence of 1 μM oxymetazoline for hα2A- and hα2B receptors and 1 μM spiroxatrine for hα2C receptors.
(§4) Data from assays in the presence of compound were calculated as a percentage of total binding measured in the absence of test compound. Inhibition curves, plotting percent of total binding versus the log value of the concentration of the test compound, were automatically generated, and sigmoidal inhibition curves were fitted using non-linear regression. The pIC50 values of test compounds were derived from individual curves.

A further assay deals with T2, hα2C receptor (Homo sapiens, UniProt P18825).
T2 construct: expressed in transfected cells; host or cells: CHO cells
T2 sequence (P18825 1-462): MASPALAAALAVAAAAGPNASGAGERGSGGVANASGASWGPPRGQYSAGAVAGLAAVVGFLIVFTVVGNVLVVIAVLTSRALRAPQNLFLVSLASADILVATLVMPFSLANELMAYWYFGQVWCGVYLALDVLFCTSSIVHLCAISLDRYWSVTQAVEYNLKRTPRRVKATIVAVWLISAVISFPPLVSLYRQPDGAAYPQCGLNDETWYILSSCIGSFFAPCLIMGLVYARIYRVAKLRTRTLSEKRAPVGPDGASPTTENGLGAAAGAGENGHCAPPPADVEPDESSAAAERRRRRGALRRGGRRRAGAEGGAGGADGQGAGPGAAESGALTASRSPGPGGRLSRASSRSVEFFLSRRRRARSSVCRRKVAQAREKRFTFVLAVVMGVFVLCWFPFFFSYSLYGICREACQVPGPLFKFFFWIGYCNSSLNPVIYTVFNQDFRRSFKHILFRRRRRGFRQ
Nature of the assay: Radioligand binding experiment for α2C-adrenergic receptor ([3H]-raulwolscine). Particulars: CHO cell membranes with human α2C receptor, [3H]raulwolscine 1 nM; read-out: pIC50 α2C (converted). The procedure: as §1, §2, §3, §4

For a further assay, the target named is T3, h5-HT transporter (Homo sapiens, UniProt P31645).
T3 construct: Human platelet membranes (Oceanix Biosciences Corporation, Hanover, Md., USA) were thawed; tissue Oceanix Biosciences Corporation; host or cells: human platelet membranes
T3 sequence (P31645 whole entry): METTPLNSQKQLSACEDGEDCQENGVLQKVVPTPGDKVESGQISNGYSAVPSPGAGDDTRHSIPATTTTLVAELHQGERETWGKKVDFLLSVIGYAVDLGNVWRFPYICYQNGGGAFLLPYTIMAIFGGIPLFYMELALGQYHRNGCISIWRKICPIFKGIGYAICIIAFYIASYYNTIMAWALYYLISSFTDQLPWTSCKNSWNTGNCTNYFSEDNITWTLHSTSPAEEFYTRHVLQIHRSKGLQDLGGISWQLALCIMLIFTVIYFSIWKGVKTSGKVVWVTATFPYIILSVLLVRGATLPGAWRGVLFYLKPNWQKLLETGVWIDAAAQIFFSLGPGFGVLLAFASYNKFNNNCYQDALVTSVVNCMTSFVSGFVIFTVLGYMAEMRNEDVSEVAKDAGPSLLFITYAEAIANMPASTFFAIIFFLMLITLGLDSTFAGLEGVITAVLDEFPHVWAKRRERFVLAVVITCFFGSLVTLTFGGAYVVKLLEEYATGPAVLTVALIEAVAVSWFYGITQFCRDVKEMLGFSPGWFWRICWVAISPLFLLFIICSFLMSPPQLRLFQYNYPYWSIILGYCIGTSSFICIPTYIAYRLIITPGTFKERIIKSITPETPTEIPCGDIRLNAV
Nature of the assay: Radioligand binding experiment for 5-HT transporter ([3H]paroxetine). Particulars: human platelet membranes, [3H]paroxetine 0.5 nM. On the procedure: as §1
Human platelet membranes (Oceanix Biosciences Corporation, Hanover, Md., USA) were thawed, diluted in buffer (Tris-HCl 50 mM, 120 mM NaCl and 5 mM KCl) and quickly (max 3 s) homogenised with an Ultraturrax homogenizer. In a total volume of 250 μL, 50-100 μg protein was incubated with [^3H]paroxetine (NET-869) (New England Nuclear, USA) (0.5 nM final concentration) with or without competitor for 60 min at 25° C. Incubation was stopped by rapid filtration of the incubation mixture over GF/B filters, pre-wetted with 0.1% polyethyleneamine, using a Filtermatel 96 harvester (Packard, Meriden, Conn.). Filters were rinsed extensively with ice-cold buffer and radioactivity on the filters was counted in a Topcount liquid scintillation counter (Packard, Meriden, Conn.). Data were expressed as cpm. Imipramine (at 1 μM final concentration) was used to determine the non-specific binding.
as §4

With `COc1cc2c(cc1N1CCOCC1)OCC1C2=NOC1CN1CCN(CC(C)=Cc2cccc(F)c2)CC1` (stereo not drawn) [Compound 83], the results for the IC50 on hα2A receptor, on hα2C receptor and at h5-HT transporter were 7.94 nM, 2.51 nM and 15.8 nM, respectively.
The corresponding values for `CC(=Cc1ccc(F)cc1)CN1CCN(CC2ON=C3c4ccc(N5CCc6ccccc6C5)cc4OCC32)CC1` (stereo not drawn) [Compound 73] are 50.1 nM, 5.01 nM and 63.1 nM.
The corresponding values for `CC(=Cc1ccccc1)CN1CCN(CC2ON=C3c4ccc(NC(=O)C5CC5)cc4OCC32)CC1` (stereo not drawn) [Compound 51] are 1.58 nM, 1 nM and 15.8 nM.
In the same order, the values of `C=CCN(C)CCN(C)c1ccc2c(c1)OCC1C2=NOC1CN1CCN(CC(C)=Cc2ccc(F)cc2)CC1` (stereo not drawn) [Compound 121] are 501 nM, 100 nM and 158 nM.
Take `CCCC(C)C(=O)Nc1cc2c(cc1OC)C1=NOC(CN3CCN(CC(C)=Cc4ccc(F)cc4)CC3)C1CO2` (stereo not drawn) [Compound 113]: the IC50 at hα2A receptor was 79.4 nM; on hα2C receptor, 39.8 nM; on h5-HT transporter, 63.1 nM.
In the same order, the values of `CCC(C)Nc1cc2c(cc1OC)C1=NOC(CN3CCN(CC(C)=Cc4ccc(F)cc4)CC3)C1CO2` (stereo not drawn) [Compound 99] are 50.1 nM, 50.1 nM and 158 nM.
For `CC(=Cc1ccc(F)cc1)CN1CCN(CC2ON=C3c4ccc(N5CCC5=O)cc4OCC32)CC1` (stereo not drawn) [Compound 69], the IC50 at hα2A receptor was 3.16 nM; on hα2C receptor, 1.26 nM; on h5-HT transporter it was 20 nM.
Take `CC(=Cc1ccc(F)cc1)CN1CCN(CC2ON=C3c4ccc(NC(C)CO)cc4OCC32)CC1` (stereo not drawn) [Compound 134]: the IC50 at hα2A receptor is 63.1 nM; on hα2C receptor, 126 nM; on h5-HT transporter, 126 nM.
As to `CC(=Cc1ccc(F)cc1)CN1CCN(CC2ON=C3c4ccc(NC(=O)C5CC5)cc4OCC32)CC1` (stereo not drawn) [Compound 138], the IC50 on hα2A receptor was 31.6 nM; at hα2C receptor, 31.6 nM; at h5-HT transporter, 50.1 nM.
For the compound `COc1cc2c(cc1N)OCC1C2=NOC1CN1CCN(C/C(C)=C/c2ccccc2)CC1` (stereo not drawn) [Compound 8], the IC50 at hα2A receptor was 5.01 nM; at hα2C receptor it was 1.58 nM; at h5-HT transporter it was 25.1 nM.
In the same order, the values of `COc1cc2c(cc1N1CCC1)OCC1C2=NOC1CN1CCN(CC(C)=Cc2ccc(F)cc2)CC1` (stereo not drawn) [Compound 102] are 20 nM, 15.8 nM and 50.1 nM.
With `CC(=O)N1CCOc2cc3c(cc21)OCC1C3=NOC1CN1CCN(C/C(C)=C/c2ccccc2)CC1` (stereo not drawn) [Compound 12], the IC50 at hα2A receptor was 2 nM; on hα2C receptor, 1 nM; at h5-HT transporter it was 31.6 nM.
On to `COc1cc2c(cc1NCCN1CCCC1)OCC1C2=NOC1CN1CCN(CC(C)=Cc2cccc(F)c2)CC1` (stereo not drawn) [Compound 27], for which the IC50 at hα2A receptor was 15.8 nM; at hα2C receptor it was 3.16 nM; on h5-HT transporter, 5.01 nM.
For `CCNC(=O)N(C(=O)NCC)c1ccc2c(c1)OCC1C2=NOC1CN1CCN(CC(C)=Cc2ccc(F)cc2)CC1` (stereo not drawn) [Compound 60], the figures for the IC50 on hα2A receptor, on hα2C receptor and at h5-HT transporter were 3160 nM, 398 nM and 6310 nM, respectively.
In the same order, the values of `CC(=Cc1ccccc1)CN1CCN(CC2ON=C3c4ccc(NC(=O)c5cccnc5)cc4OCC32)CC1` (stereo not drawn) [Compound 67] are 2 nM, 1.26 nM and 12.6 nM.
The corresponding values for `CNc1cc2c(cc1OC)C1=NOC(CN3CCN(CC(C)=Cc4cccc(F)c4)CC3)C1CO2` (stereo not drawn) [Compound 17] are 7.94 nM, 2 nM and 12.6 nM.
The corresponding values for `COc1cc2c(cc1NC(=O)C1CC1)OCC1C2=NOC1CN1CCN(CC(C)=Cc2ccccc2)CC1` (stereo not drawn) [Compound 52] are 3.98 nM, 0.631 nM and 20 nM.
With `CCN(CC)CCN(C)c1ccc2c(c1)OCC1C2=NOC1CN1CCN(CC(C)=Cc2ccc(F)cc2)CC1` (stereo not drawn) [Compound 25], the results for the IC50 on hα2A receptor, on hα2C receptor and at h5-HT transporter were 6.31 nM, 0.398 nM and 7.94 nM, respectively.
For the compound `CC(=Cc1ccc(F)cc1)CN1CCN(CC2ON=C3c4ccc(N(C)CCNCC(C)O)cc4OCC32)CC1` (stereo not drawn) [Compound 119], the figures for the IC50 at hα2A receptor, on hα2C receptor and at h5-HT transporter were 10 nM, 3.16 nM and 3.16 nM, respectively.
For the compound `COc1cc2c(cc1N(C)CCO)OCC1C2=NOC1CN1CCN(CC(C)=Cc2cccc(F)c2)CC1` (stereo not drawn) [Compound 36], the figures for the IC50 on hα2A receptor, on hα2C receptor and at h5-HT transporter were 20 nM, 2.51 nM and 25.1 nM, respectively.
On to `CCC(C)Nc1ccc2c(c1)OCC1C2=NOC1CN1CCN(CC(C)=Cc2ccc(F)cc2)CC1` (stereo not drawn) [Compound 131], for which the IC50 was 158 nM at hα2A receptor, 50.1 nM at hα2C receptor and 63.1 nM at h5-HT transporter.
In the case of `CC(=Cc1ccc(F)cc1)CN1CCN(CC2ON=C3c4ccc(NC(C)C)cc4OCC32)CC1` (stereo not drawn) [Compound 129], the values for the IC50 at hα2A receptor, on hα2C receptor and on h5-HT transporter were 63.1 nM, 31.6 nM and 158 nM, respectively.
In the same order, the values of `COc1cc2c(cc1N1CCOCC1)OCC1C2=NOC1CN1CCN(CC(C)=Cc2ccc(F)cc2)CC1` (stereo not drawn) [Compound 85] are 10 nM, 3.16 nM and 63.1 nM.
In the same order, the values of `COc1cc2c(cc1NC(=O)C1CCC1)OCC1C2=NOC1CN1CCN(CC(C)=Cc2ccc(F)cc2)CC1` (stereo not drawn) [Compound 115] are 39.8 nM, 39.8 nM and 25.1 nM.
In the same order, the values of `CC(=Cc1ccccc1)CN1CCN(CC2ON=C3c4ccc(NC(=O)c5ccccc5)cc4OCC32)CC1` (stereo not drawn) [Compound 55] are 5.01 nM, 3.16 nM and 25.1 nM.
